In experiment [1] the target is T1, Adenosine receptor A1 (Homo sapiens, UniProt P30542).
T1 sequence (P30542 whole entry): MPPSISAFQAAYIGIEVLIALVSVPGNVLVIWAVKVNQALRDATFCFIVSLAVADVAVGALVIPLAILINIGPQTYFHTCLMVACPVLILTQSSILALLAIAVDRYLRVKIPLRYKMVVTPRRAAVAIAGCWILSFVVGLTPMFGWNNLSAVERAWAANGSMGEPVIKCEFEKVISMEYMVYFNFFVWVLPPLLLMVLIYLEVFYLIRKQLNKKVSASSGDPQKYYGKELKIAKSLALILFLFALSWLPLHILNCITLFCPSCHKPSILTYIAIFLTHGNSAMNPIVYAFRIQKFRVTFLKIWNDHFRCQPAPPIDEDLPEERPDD
As to the kind of experiment: Antagonist activity at human adenosine A1 receptor expressed in CHO cells coexpressing cAMP response element assessed as inhibition of agonist-induced response by SPAP reporter gene assay in presence of forskolin. It counts as functional, cell-based. (In a reporter assay the amount or activity of a reporter protein is the signal.)

For experiment [2], the target named is T2, Adenosine receptor A1 (Homo sapiens) (UniProt P30542).
T2 sequence (whole entry): T1 sequence (P30542 whole entry)
As to the kind of experiment: Displacement of [3H]R-PIA from human adenosine A1 receptor expressed in CHO cells at 10 uM after 60 mins by […] analysis relative to control. In kind it is cell-based. On the technique in general: Displacement assays read how much labelled ligand stays bound in the presence of the test substance.

Experiment [3] has as its target T3, Adenosine receptor A3 (Homo sapiens, UniProt P0DMS8).
T3 sequence (P0DMS8 whole entry): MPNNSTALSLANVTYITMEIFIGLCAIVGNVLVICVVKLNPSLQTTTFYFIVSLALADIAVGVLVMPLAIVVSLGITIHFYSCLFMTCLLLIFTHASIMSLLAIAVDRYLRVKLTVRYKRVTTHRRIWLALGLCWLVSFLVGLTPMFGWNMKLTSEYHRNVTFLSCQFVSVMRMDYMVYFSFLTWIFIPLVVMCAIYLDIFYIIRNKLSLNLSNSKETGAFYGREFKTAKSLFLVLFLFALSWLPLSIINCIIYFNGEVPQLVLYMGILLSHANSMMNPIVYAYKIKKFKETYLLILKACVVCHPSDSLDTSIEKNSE
In kind it is cell-based, CHO.

In experiment [4] the target is T4, Adenosine receptor A2a (Homo sapiens, UniProt P29274). As to the kind of experiment: Displacement of [3H]CGS21680 from human adenosine A2A receptor expressed in HEK293 cells after 60 mins by […] analysis. In kind it is cell-based.
In experiment [5] the target is T2, Adenosine receptor A1 (Homo sapiens). In words: Displacement of [3H]DPCPX from human adenosine A1 receptor expressed in CHO cells up to 0.1 mM after 2 hrs by scintillation counting analysis. It counts as cell-based.
Experiment [6] has as its target T1, Adenosine receptor A1. As to the kind of experiment: Displacement of [3H]DPCPX from adenosine A1 receptor in human cortical membranes. In kind it is cell membranes.
Experiment [7] concerns the target T3, Adenosine receptor A3. It counts as cell-based, CHO. This is another data set of the same source.
Experiment [8] addresses T4, Adenosine receptor A2a. In words: Displacement of [3H]CGS21680 from adenosine A2A receptor in human striatal membranes. In kind it is cell membranes, Striatum, Membrane.

The structures appear in SMILES notation. Activity calls are given as the source filed them. No cut-off for these calls is given here. A value given as a limit tells only on which side of the number the result lay.

T4 sequence (P29274 whole entry): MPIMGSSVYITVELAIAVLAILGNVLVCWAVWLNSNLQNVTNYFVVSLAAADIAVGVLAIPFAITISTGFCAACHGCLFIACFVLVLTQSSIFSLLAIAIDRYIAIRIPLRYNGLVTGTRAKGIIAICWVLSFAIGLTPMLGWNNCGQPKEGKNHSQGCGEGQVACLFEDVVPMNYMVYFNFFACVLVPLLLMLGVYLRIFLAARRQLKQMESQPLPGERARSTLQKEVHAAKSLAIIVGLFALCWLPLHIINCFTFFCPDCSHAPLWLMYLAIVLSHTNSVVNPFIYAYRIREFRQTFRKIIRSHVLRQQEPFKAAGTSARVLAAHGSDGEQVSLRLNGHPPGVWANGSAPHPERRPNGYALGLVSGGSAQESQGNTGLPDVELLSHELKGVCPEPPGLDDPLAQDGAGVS

Usually Kd stands for the constant that tells how readily two partners part at equilibrium. As to `CCNC(=O)[C@H]1O[C@@H](n2cnc3c(NCCNC(=O)COc4ccc(/C=C/C5=[N+]6C(=Cc7ccc(-c8cccs8)n7[B-]6(F)F)C=C5)cc4)ncnc32)[C@H](O)[C@@H]1O`, on Adenosine receptor A1 [1], the equilibrium dissociation constant (Kd) was 14.5 nM. On the same count and under the same terms, in the case of `CCNC(=O)[C@H]1O[C@@H](n2cnc3c(NCCCNC(=O)COc4ccc(/C=C/C5=[N+]6C(=Cc7ccc(-c8cccs8)n7[B-]6(F)F)C=C5)cc4)ncnc32)[C@H](O)[C@@H]1O` it was 16.2 nM; in that of `CCNC(=O)[C@H]1O[C@@H](n2cnc3c(NCCCCNC(=O)COc4ccc(/C=C/C5=[N+]6C(=Cc7ccc(-c8cccs8)n7[B-]6(F)F)C=C5)cc4)ncnc32)[C@H](O)[C@@H]1O`, 16.2 nM; in that of `CCNC(=O)[C@H]1O[C@@H](n2cnc3c(NCCCCCCCCNC(=O)COc4ccc(/C=C/C5=[N+]6C(=Cc7ccc(-c8cccs8)n7[B-]6(F)F)C=C5)cc4)ncnc32)[C@H](O)[C@@H]1O`, 14.1 nM.

As a reminder, the inhibition is the percentage by which the read-out fell short of the control. A lower inhibition goes with a weak effect. A word on the Ki: it is a measure of affinity in units of concentration, obtained from inhibition or displacement. A lower Ki goes with higher affinity. Consider `Cn1cc2c(nc(NCCCCCNC(=S)Nc3ccc(C4c5ccc(O)cc5OC5=CC(=O)C=CC54)c(C(=O)O)c3)n3nc(-c4ccco4)nc23)n1` (stereo not drawn), for which, in experiment [2], the inhibition is 9%. In addition, the results for the Ki on Adenosine receptor A3 [3] and at Adenosine receptor A2a [4] were 5620 nM and 1780 nM, respectively. Consider `CCNC(=O)[C@H]1O[C@@H](n2cnc3c(NCCCCNC(=O)CCCCCN4/C(=C/C=C/C=C/C5=[N+](CC)c6cc(S(=O)(=O)O)ccc6C5(C)C)C(C)(C)c5cc(S(=O)(=O)[O-])ccc54)ncnc32)[C@H](O)[C@@H]1O`, for which, in experiment [5], the outcome was inactive. For the molecule `CCNC(=O)[C@H]1O[C@@H](n2cnc3c(NCCNc4ccc([N+](=O)[O-])c5nonc45)ncnc32)[C@H](O)[C@@H]1O`, the figures for the inhibition constant (Ki) on Adenosine receptor A1 [6], at Adenosine receptor A3 [7] and at Adenosine receptor A2a [8] were > 10 µM, 56.2 nM and 6.76 µM, respectively. On the same counts, the results for `CCNC(=O)[C@H]1O[C@@H](n2cnc3c(NCCCCCCNc4ccc([N+](=O)[O-])c5nonc45)ncnc32)[C@H](O)[C@@H]1O` are > 10 µM, 24 nM and 6.17 µM. Take `CCNC(=O)[C@H]1O[C@@H](n2cnc3c(NCCCCNC(=O)CCCCCCCNS(=O)(=O)c4cccc5c(N(C)C)cccc45)ncnc32)[C@H](O)[C@@H]1O`: the outcome in experiment [5] was inactive. Regarding `CCCn1c(=O)c2[nH]c(-c3ccc(OCC(=O)NCCNC(=O)CCCCCCC(=O)NCCNC(=O)CCC4=[N+]5C(=Cc6c(C)cc(C)n6[B-]5(F)F)C=C4)cc3)nc2n(CCC)c1=O`, the outcome in experiment [5] was inactive. For the molecule `CCNC(=O)[C@H]1O[C@@H](n2cnc3c(NCCCCCCCCCCNc4ccc([N+](=O)[O-])c5nonc45)ncnc32)[C@H](O)[C@@H]1O`, the Ki on Adenosine receptor A1 [6] is 6.46 µM; on Adenosine receptor A3 [7], 28.2 nM; at Adenosine receptor A2a [8], 6.17 µM. Turning to `CCNC(=O)[C@H]1O[C@@H](n2cnc3c(NCCCCCCCCNc4ccc([N+](=O)[O-])c5nonc45)ncnc32)[C@H](O)[C@@H]1O`, the inhibitory constant (Ki) on Adenosine receptor A1 [6] is 3.55 µM; on Adenosine receptor A3 [7], 7.41 nM; at Adenosine receptor A2a [8], 5.13 µM.

Consider `CCNC(=O)[C@H]1O[C@@H](n2cnc3c(NCCCCNc4ccc([N+](=O)[O-])c5nonc45)ncnc32)[C@H](O)[C@@H]1O`, for which the Ki on Adenosine receptor A1 [6] was > 10 µM; on Adenosine receptor A3 [7] it was 389 nM; on Adenosine receptor A2a [8], > 10 µM.

Regarding `CCNC(=O)[C@H]1O[C@@H](n2cnc3c(NCCCCCCCCCCCNC(=O)COc4ccc(/C=C/C5=[N+]6C(=Cc7ccc(-c8cccs8)n7[B-]6(F)F)C=C5)cc4)ncnc32)[C@H](O)[C@@H]1O`, on Adenosine receptor A1 [1], the equilibrium dissociation constant (Kd) was 12.9 nM. In experiment [2], `Cn1cc2c(nc(NCCCNC(=S)Nc3ccc(C4c5ccc(O)cc5OC5=CC(=O)C=CC54)c(C(=O)O)c3)n3nc(-c4ccco4)nc23)n1` (stereo not drawn) gave an inhibition of 5%. The values for the Ki at Adenosine receptor A3 [3] and on Adenosine receptor A2a [4] were 2400 nM and 2510 nM, respectively. As to `CCNC(=O)[C@H]1O[C@@H](n2cnc3c(NCCOCCOCCNC(=O)COc4ccc(/C=C/C5=[N+]6C(=Cc7ccc(-c8cccs8)n7[B-]6(F)F)C=C5)cc4)ncnc32)[C@H](O)[C@@H]1O`, the Kd at Adenosine receptor A1 [1] is 17.8 nM. In turn, `Cn1cc2c(nc(NCCCCNC(=S)Nc3ccc(C4c5ccc(O)cc5OC5=CC(=O)C=CC54)c(C(=O)O)c3)n3nc(-c4ccco4)nc23)n1` (stereo not drawn) gave an inhibition in experiment [2] of 7%. The inhibition constant Ki at Adenosine receptor A3 [3] was 724 nM; on Adenosine receptor A2a [4], 468 nM.

Source of the values: ChEMBL document CHEMBL2412992, “Fluorescent ligands for adenosine receptors” (Bioorg Med Chem Lett, 2013).
